Source: PubChem BioAssay AID256 (DTP/NCI, 2004)
Several values for one entry are separate records, joined by “and”; a condition that tells them apart may be missing. Equal values may be shown once. Toxic doses and inconclusive results are not listed.

Test system: CD2F1 mice, L1210 leukemia ip, survival T/C
Experiment: NCI In Vivo Anticancer Drug Screen. Data for tumor model L1210 Leukemia (intraperitoneal) in CD2F1 (CDF1) mice
Conditions: higher = longer survival
Method: The antitumor activity of compounds was measured in mice bearing transplantable tumors. Survival or tumor size were measured and the results are expressed as the measurement made in the treated group (T) divided by the measurement made in the vehicle treated control group (C). The tumor model used in this assay is L1210 Leukemia (intraperitoneal) in CD2F1 (CDF1) mice

[1] = endpoint: mean survival time, dose: 100.0 mg/kg/injection, schedule: Q04DX003 (ip), vehicle: saline with Tween-80
[2] = endpoint: mean survival time, dose: 200.0 mg/kg/injection, schedule: Q04DX003 (ip), vehicle: saline with Tween-80
[3] = endpoint: mean survival time, dose: 400.0 mg/kg/injection, schedule: Q04DX003 (ip), vehicle: saline with Tween-80
[4] = endpoint: mean survival time, dose: 100.0 mg/kg/injection, schedule: Q01DX009 (ip), vehicle: saline
[5] = endpoint: mean survival time, dose: 100.0 mg/kg/injection, schedule: Q04DX003 (ip), vehicle: saline
[6] = endpoint: mean survival time, dose: 200.0 mg/kg/injection, schedule: Q01DX009 (ip), vehicle: saline
[7] = endpoint: mean survival time, dose: 200.0 mg/kg/injection, schedule: Q04DX003 (ip), vehicle: saline
[8] = endpoint: mean survival time, dose: 100.0 mg/kg/injection, schedule: Q01DX009 (ip), vehicle: saline with Tween-80
[9] = endpoint: mean survival time, dose: 400.0 mg/kg/injection, schedule: Q01DX009 (ip), vehicle: saline with Tween-80
[10] = endpoint: mean survival time, dose: 12.5 mg/kg/injection, schedule: Q01DX009 (ip), vehicle: water
[11] = endpoint: mean survival time, dose: 25.0 mg/kg/injection, schedule: Q01DX009 (ip), vehicle: water
[12] = endpoint: mean survival time, dose: 50.0 mg/kg/injection, schedule: Q01DX009 (ip), vehicle: water

SMILES: O=c1[nH]c(-c2ccccc2)nc(Cc2ccccc2)c1CCO
- T/C [1]: 89 % of control
- T/C [2]: 89 % of control
- T/C [3]: 91 % of control

SMILES: NC(CCC(=O)c1ccccn1)C(=O)O (centres undefined)
- T/C (endpoint: mean survival time, dose: 50.0 mg/kg/injection, schedule: Q01DX009 (ip), vehicle: saline): 96 % of control
- T/C [4]: 96 % of control
- T/C [5]: 96 % of control
- T/C [6]: 100 % of control
- T/C [7]: 98 % of control

SMILES: CSc1ccnc2ccccc12
- T/C (endpoint: mean survival time, dose: 12.5 mg/kg/injection, schedule: Q01DX009 (ip), vehicle: other): 106 % of control
- T/C (endpoint: mean survival time, dose: 25.0 mg/kg/injection, schedule: Q01DX009 (ip), vehicle: other): 100 % of control
- T/C (endpoint: mean survival time, dose: 50.0 mg/kg/injection, schedule: Q01DX009 (ip), vehicle: other): 103 % of control

SMILES: CCCCCCN(CCCCCC)CP(=O)(CN(CCCCCC)CCCCCC)CN(CCCCCC)CCCCCC
- T/C (endpoint: mean survival time, dose: 100.0 mg/kg/injection, schedule: Q01DX001 (ip), vehicle: saline with Tween-80): 95 % of control
- T/C (endpoint: mean survival time, dose: 200.0 mg/kg/injection, schedule: Q01DX001 (ip), vehicle: saline with Tween-80): 104 % of control
- T/C (endpoint: mean survival time, dose: 400.0 mg/kg/injection, schedule: Q01DX001 (ip), vehicle: saline with Tween-80): 104 % of control

SMILES: O=C1C(c2ccccc2)=S=C2Sc3ccccc3N12
- T/C (endpoint: mean survival time, dose: 100.0 mg/kg/injection, schedule: Q04DX003 (ip), vehicle: Klucel (hydroxypropylcellulose) (HPC)): 102 % of control
- T/C (endpoint: mean survival time, dose: 200.0 mg/kg/injection, schedule: Q04DX003 (ip), vehicle: Klucel (hydroxypropylcellulose) (HPC)): 103 % of control
- T/C (endpoint: mean survival time, dose: 400.0 mg/kg/injection, schedule: Q04DX003 (ip), vehicle: Klucel (hydroxypropylcellulose) (HPC)): 96 % of control

SMILES: CNC(=O)Nc1ccc(OS(=O)(=O)N(C)C)cc1
- T/C [1]: 101 % of control
- T/C [2]: 101 % of control
- T/C [3]: 101 % of control

SMILES: O=C1c2ccccc2C(=O)N1CNc1ccc(Cl)cn1
- T/C [8]: 86 % of control
- T/C [1]: 97 % of control and 100 % of control
- T/C [2]: 90 % of control and 98 % of control
- T/C [9]: 86 % of control
- T/C [3]: 91 % of control and 102 % of control

SMILES: CC(C)C[P+](c1ccccc1)(c1ccccc1)c1ccccc1
- T/C (endpoint: mean survival time, dose: 75.0 mg/kg/injection, schedule: Q01DX001 (ip), vehicle: other): 96 % of control

SMILES: NC(N)=NCCCCC(N)C(=O)O (centres undefined)
- T/C (endpoint: mean survival time, dose: 100.0 mg/kg/injection, schedule: Q01DX009 (ip), vehicle: acetone): 101 % of control
- T/C [4]: 95 % of control
- T/C [5]: 97 % of control
- T/C (endpoint: mean survival time, dose: 200.0 mg/kg/injection, schedule: Q01DX009 (ip), vehicle: acetone): 96 % of control
- T/C [6]: 95 % of control
- T/C [7]: 100 % of control
- T/C (endpoint: mean survival time, dose: 400.0 mg/kg/injection, schedule: Q01DX009 (ip), vehicle: acetone): 98 % of control
- T/C (endpoint: mean survival time, dose: 400.0 mg/kg/injection, schedule: Q01DX009 (ip), vehicle: saline): 95 % of control
- T/C (endpoint: mean survival time, dose: 400.0 mg/kg/injection, schedule: Q04DX003 (ip), vehicle: saline): 103 % of control

SMILES: CC(=O)OC1(/N=[N+](/C)[O-])CCCC1
- T/C (endpoint: mean survival time, dose: 50.0 mg/kg/injection, schedule: Q04DX003 (ip), vehicle: saline with Tween-80): 167 % of control
- T/C [1]: 95 % of control

SMILES: CC1=C[P+](c2ccccc2)(c2ccccc2)C=C(c2ccccc2)O1
- T/C (endpoint: median survival time, dose: 1.25 mg/kg/injection, schedule: Q01DX009 (ip), vehicle: suspension in saline): 108 % of control
- T/C (endpoint: median survival time, dose: 2.5 mg/kg/injection, schedule: Q01DX009 (ip), vehicle: suspension in saline): 111 % of control
- T/C (endpoint: median survival time, dose: 5.0 mg/kg/injection, schedule: Q01DX009 (ip), vehicle: suspension in saline): 113 % of control
- T/C (endpoint: median survival time, dose: 10.0 mg/kg/injection, schedule: Q01DX009 (ip), vehicle: suspension in saline): 123 % of control
- T/C (endpoint: median survival time, dose: 20.0 mg/kg/injection, schedule: Q01DX009 (ip), vehicle: suspension in saline): 104 % of control

SMILES: C=C(C)C12CC(C)C34OC(CCCCCCCCCCC)(OC1C3C1OC1(CO)C(O)C1(O)C(=O)C(C)=CC14C)O2 (centres undefined)
- T/C (endpoint: mean survival time, dose: 0.05 mg/kg/injection, schedule: Q01DX009 (ip), vehicle: other): 94 % of control
- T/C (endpoint: mean survival time, dose: 0.1 mg/kg/injection, schedule: Q01DX009 (ip), vehicle: other): 89 % of control
- T/C (endpoint: mean survival time, dose: 0.2 mg/kg/injection, schedule: Q01DX009 (ip), vehicle: other): 89 % of control
- T/C (endpoint: mean survival time, dose: 0.4 mg/kg/injection, schedule: Q01DX009 (ip), vehicle: other): 89 % of control

SMILES: Nc1ncnc2c1ncn2C1OC(C(N)C(=O)O)C(O)C1O (centres undefined)
- T/C (endpoint: mean survival time, dose: 6.25 mg/kg/injection, schedule: Q01DX005 (ip), vehicle: distilled water + Tween-80): 101 % of control
- T/C (endpoint: mean survival time, dose: 12.5 mg/kg/injection, schedule: Q01DX005 (ip), vehicle: distilled water + Tween-80): 96 % of control
- T/C (endpoint: mean survival time, dose: 25.0 mg/kg/injection, schedule: Q01DX005 (ip), vehicle: distilled water + Tween-80): 98 % of control
- T/C (endpoint: mean survival time, dose: 50.0 mg/kg/injection, schedule: Q01DX005 (ip), vehicle: distilled water + Tween-80): 98 % of control
- T/C (endpoint: mean survival time, dose: 100.0 mg/kg/injection, schedule: Q01DX005 (ip), vehicle: distilled water + Tween-80): 103 % of control

SMILES: CCOc1ccc(-c2nc(N)nc(N)n2)cc1
- T/C [10]: 101 % of control
- T/C [11]: 97 % of control
- T/C [12]: 97 % of control
- T/C (endpoint: mean survival time, dose: 100.0 mg/kg/injection, schedule: Q01DX009 (ip), vehicle: water): 97 % of control
- T/C (endpoint: mean survival time, dose: 200.0 mg/kg/injection, schedule: Q01DX009 (ip), vehicle: water): 97 % of control

SMILES: C/C(=N/NC(=O)c1ccccc1)c1ccc(O)cc1
- T/C [8]: 96 % of control
- T/C [1]: 96 % of control
- T/C (endpoint: mean survival time, dose: 200.0 mg/kg/injection, schedule: Q01DX009 (ip), vehicle: saline with Tween-80): 97 % of control
- T/C [2]: 98 % of control
- T/C [9]: 91 % of control
- T/C [3]: 100 % of control

SMILES: CC(C)(CCC(C)(C)NCCCN)NCCCN
- T/C [10]: 94 % of control
- T/C [11]: 97 % of control
- T/C [12]: 109 % of control

SMILES: CN=C1CCCCN1
- T/C (endpoint: mean survival time, dose: 100.0 mg/kg/injection, schedule: Q04DX003 (ip), vehicle: saline sonified): 103 % of control
- T/C (endpoint: mean survival time, dose: 200.0 mg/kg/injection, schedule: Q04DX003 (ip), vehicle: saline sonified): 104 % of control
- T/C (endpoint: mean survival time, dose: 400.0 mg/kg/injection, schedule: Q04DX003 (ip), vehicle: saline sonified): 103 % of control

SMILES: [N-]=[N+]=NCCCCCCCCCCN=[N+]=[N-]
- T/C (endpoint: mean survival time, dose: 75.0 mg/kg/injection, schedule: Q01DX001 (ip), vehicle: saline): 98 % of control
- T/C (endpoint: mean survival time, dose: 150.0 mg/kg/injection, schedule: Q01DX001 (ip), vehicle: saline): 101 % of control
- T/C (endpoint: mean survival time, dose: 300.0 mg/kg/injection, schedule: Q01DX001 (ip), vehicle: saline): 98 % of control

SMILES: O=CN(O)CC(=O)O.[Ni]
- T/C (endpoint: mean survival time, dose: 12.5 mg/kg/injection, schedule: Q04DX003 (ip), vehicle: saline): 102 % of control
- T/C (endpoint: mean survival time, dose: 25.0 mg/kg/injection, schedule: Q04DX003 (ip), vehicle: saline): 102 % of control

SMILES: CC1CNC(Cl)O1 (centres undefined)
- T/C [1]: 87 % of control
- T/C [2]: 105 % of control

SMILES: CC(=O)C/C=C(\C)CCC=C(C)C
- T/C (endpoint: mean survival time, dose: 100.0 mg/kg/injection, schedule: Q04DX003 (ip), vehicle: acetone): 91 % of control
- T/C (endpoint: mean survival time, dose: 200.0 mg/kg/injection, schedule: Q04DX003 (ip), vehicle: acetone): 94 % of control
- T/C (endpoint: mean survival time, dose: 400.0 mg/kg/injection, schedule: Q04DX003 (ip), vehicle: acetone): 98 % of control

SMILES: CCOC(=O)/N=[N+](\[O-])c1ccccc1
- T/C (endpoint: median survival time, dose: 3.12 mg/kg/injection, schedule: Q01DX009 (ip), vehicle: saline with Tween-80): 109 % of control
- T/C (endpoint: median survival time, dose: 6.25 mg/kg/injection, schedule: Q01DX009 (ip), vehicle: saline with Tween-80): 112 % of control
- T/C (endpoint: median survival time, dose: 12.5 mg/kg/injection, schedule: Q01DX009 (ip), vehicle: saline with Tween-80): 105 % of control

SMILES: CCOC(=O)Cc1c(C)[nH]c2c(C)ccc(C)c12
- T/C (endpoint: mean survival time, dose: 100.0 mg/kg/injection, schedule: Q01DX001 (ip), vehicle: other): 95 % of control

SMILES: CCS(=O)(=O)C1(S(=O)(=O)CC)CCCCC1
- T/C (endpoint: mean survival time, dose: 100.0 mg/kg/injection, schedule: Q01DX001 (ip), vehicle: saline): 102 % of control
- T/C (endpoint: mean survival time, dose: 200.0 mg/kg/injection, schedule: Q01DX001 (ip), vehicle: saline): 102 % of control
- T/C (endpoint: mean survival time, dose: 400.0 mg/kg/injection, schedule: Q01DX001 (ip), vehicle: saline): 102 % of control

SMILES: O=C(O)C(=O)O.[NH-]CC(O)CN(CC(O)CO)c1ccccc1.[Pt+2] (centres undefined)
- T/C (endpoint: median survival time, dose: 10.0 mg/kg/injection, schedule: Q04DX003 (ip), vehicle: distilled water + Tween-80): 100 % of control
- T/C (endpoint: median survival time, dose: 20.0 mg/kg/injection, schedule: Q04DX003 (ip), vehicle: distilled water + Tween-80): 98 % of control
- T/C (endpoint: median survival time, dose: 40.0 mg/kg/injection, schedule: Q04DX003 (ip), vehicle: distilled water + Tween-80): 101 % of control
- T/C (endpoint: median survival time, dose: 80.0 mg/kg/injection, schedule: Q04DX003 (ip), vehicle: distilled water + Tween-80): 102 % of control
